The source of these data is ChEMBL document CHEMBL3638647, “Compounds useful as inhibitors of ATR kinase” (2014).

Structures are written as SMILES.

The target of the assay is Serine/threonine-protein kinase ATR (Homo sapiens, UniProt Q13535). Description: Inhibition Assay: Compounds were screened for their ability to inhibit ATR kinase using a radioactive-phosphate incorporation assay. Assays were carried out in a mixture of 50 mM Tris/HCl (pH 7.5), 10 mM MgCl2 and 1 mM DTT. Final substrate concentrations were 10 Î¼M [Î³-33P]ATP (3mCi 33P ATP/mmol ATP, Perkin Elmer) and 800 Î¼M target peptide (ASELPASQPQPFSAKKK).Assays were carried out at 25° C. in the presence of 5 nM full-length ATR. An assay stock buffer solution was prepared containing all of the reagents listed above, with the exception of ATP and the test compound of interest. 13.5 Î¼L of the stock solution was placed in a 96 well plate followed by addition of 2 Î¼L of DMSO stock containing serial dilutions of the test compound (typically starting from a final concentration of 15 Î¼M with 3-fold serial dilutions) in duplicate (final DMSO concentration 7%). The plate was pre-incubated for 10 minutes at 25° C. and the reaction initiated by addition of 15 Î¼L [Î³-33P]ATP.

As a reminder, the Ki is a dissociation constant, usually derived from enzyme kinetics or from competition with a known ligand.

Sequence of Serine/threonine-protein kinase ATR (Q13535 whole entry): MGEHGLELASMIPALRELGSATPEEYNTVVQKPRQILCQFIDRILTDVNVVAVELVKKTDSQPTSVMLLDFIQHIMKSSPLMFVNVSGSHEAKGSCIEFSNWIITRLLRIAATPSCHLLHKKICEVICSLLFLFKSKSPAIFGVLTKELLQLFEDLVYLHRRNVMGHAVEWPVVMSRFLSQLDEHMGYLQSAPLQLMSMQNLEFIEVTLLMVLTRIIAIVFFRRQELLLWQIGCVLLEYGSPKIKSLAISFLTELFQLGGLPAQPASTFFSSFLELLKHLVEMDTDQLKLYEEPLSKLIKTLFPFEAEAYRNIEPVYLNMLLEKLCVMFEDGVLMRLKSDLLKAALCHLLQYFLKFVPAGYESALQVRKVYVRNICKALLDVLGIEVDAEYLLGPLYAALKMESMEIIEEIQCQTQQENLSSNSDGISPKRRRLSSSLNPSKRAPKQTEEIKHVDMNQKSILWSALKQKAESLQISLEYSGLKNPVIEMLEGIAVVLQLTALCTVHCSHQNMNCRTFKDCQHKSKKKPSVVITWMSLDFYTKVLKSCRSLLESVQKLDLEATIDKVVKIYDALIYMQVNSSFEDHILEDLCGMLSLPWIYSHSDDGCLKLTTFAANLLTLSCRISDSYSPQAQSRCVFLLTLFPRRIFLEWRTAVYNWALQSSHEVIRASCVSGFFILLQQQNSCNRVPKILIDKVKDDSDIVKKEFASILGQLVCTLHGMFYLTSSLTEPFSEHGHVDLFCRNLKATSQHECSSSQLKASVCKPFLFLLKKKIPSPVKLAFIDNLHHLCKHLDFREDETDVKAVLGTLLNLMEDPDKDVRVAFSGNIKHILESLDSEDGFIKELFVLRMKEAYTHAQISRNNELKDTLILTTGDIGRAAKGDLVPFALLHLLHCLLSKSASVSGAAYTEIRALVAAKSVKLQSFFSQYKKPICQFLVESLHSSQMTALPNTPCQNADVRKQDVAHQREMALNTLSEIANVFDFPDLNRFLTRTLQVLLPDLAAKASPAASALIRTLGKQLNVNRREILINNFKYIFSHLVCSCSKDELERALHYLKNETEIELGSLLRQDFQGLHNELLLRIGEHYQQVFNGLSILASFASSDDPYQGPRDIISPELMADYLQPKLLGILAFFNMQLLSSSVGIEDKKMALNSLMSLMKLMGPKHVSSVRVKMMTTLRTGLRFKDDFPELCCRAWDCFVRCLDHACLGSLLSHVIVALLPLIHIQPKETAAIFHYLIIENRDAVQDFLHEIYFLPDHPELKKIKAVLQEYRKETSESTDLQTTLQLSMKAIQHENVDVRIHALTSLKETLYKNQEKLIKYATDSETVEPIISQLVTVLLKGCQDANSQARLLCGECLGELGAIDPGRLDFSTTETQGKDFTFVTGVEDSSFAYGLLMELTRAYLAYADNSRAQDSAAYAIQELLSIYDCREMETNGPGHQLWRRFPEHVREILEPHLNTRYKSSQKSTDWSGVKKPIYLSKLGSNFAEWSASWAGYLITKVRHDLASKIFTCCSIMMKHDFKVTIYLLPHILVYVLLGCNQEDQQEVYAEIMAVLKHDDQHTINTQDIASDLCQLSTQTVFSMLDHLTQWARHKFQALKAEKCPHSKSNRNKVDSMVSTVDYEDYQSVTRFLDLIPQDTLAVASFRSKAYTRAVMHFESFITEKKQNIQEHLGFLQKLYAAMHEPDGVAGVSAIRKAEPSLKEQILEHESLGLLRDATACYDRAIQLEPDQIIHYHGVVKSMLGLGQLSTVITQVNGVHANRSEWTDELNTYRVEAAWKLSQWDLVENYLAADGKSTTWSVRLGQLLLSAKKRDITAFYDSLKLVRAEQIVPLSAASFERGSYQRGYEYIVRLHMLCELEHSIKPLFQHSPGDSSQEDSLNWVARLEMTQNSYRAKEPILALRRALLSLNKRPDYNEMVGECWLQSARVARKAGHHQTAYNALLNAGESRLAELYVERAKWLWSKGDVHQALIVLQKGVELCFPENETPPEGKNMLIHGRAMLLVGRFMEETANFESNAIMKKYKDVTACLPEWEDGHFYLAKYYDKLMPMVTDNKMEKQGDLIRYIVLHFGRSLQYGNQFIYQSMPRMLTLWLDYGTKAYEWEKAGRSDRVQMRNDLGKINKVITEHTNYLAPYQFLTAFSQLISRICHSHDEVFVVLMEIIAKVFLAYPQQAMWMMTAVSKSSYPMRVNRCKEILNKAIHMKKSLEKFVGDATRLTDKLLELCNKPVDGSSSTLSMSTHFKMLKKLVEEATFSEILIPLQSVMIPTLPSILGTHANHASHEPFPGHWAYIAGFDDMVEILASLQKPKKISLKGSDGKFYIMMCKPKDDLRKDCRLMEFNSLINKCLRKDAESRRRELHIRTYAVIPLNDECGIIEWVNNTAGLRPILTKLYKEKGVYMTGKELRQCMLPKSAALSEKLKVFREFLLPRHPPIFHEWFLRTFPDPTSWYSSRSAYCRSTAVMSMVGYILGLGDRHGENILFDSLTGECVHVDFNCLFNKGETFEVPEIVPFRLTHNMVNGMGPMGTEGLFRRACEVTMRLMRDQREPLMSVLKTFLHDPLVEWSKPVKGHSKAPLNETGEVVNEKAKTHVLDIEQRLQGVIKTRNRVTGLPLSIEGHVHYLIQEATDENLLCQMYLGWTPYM

Consider `CNCc1ccc(C2=NOC(c3nc(-c4ccc(S(=O)(=O)C(C)C)cc4)cnc3N)C2)cc1` (stereo unspecified), for which the Ki amounted to 90 nM.
